The results in this text go back to US20230330133A1, “METHODS FOR THE TREATMENT OF CHOLESTEROL CRYSTAL EMBOLIZATION WITH CYCLODEXTRINS” (Beren Therapeutics P.B.C., priority 2020, published 2023).

The conditions of assay [1]: human subject, single-ascending i.v. doses 500-1,000 mg/kg every 4 weeks; after treatment vs pre-dose; FIG. 1A. The method, then:
A human subject was treated with 2-hydroxypropyl-beta-cyclodextrin with single-ascending doses administered intravenously every 4 weeks according to Table 1 below. […] For each dose, whole blood was collected pre-dose, post-dose (line flush), 1 hour post-dose, and 24 hours post-dose. Plasma was separated from the whole blood and subjected to a cholesterol crystal dissolution capacity (CCDC) assay using techniques similar to those described in the literature. The CCDC assay measures the ability of a sample to dissolve cholesterol crystals.

For assay [2] the following is noted: pre-dose human plasma incubated ex vivo with the substance; FIG. 1B. The method, then:
For each dose, whole blood was collected pre-dose, post-dose (line flush), 1 hour post-dose, and 24 hours post-dose. Plasma was separated from the whole blood and subjected to a cholesterol crystal dissolution capacity (CCDC) assay using techniques similar to those described in the literature. The CCDC assay measures the ability of a sample to dissolve cholesterol crystals.
Blood plasma pre-dose was also incubated ex vivo with 2-hydroxypropyl-beta-cyclodextrin and the ability of the plasma to dissolve cholesterol crystals was measured.

The conditions of assay [3]: human subject, i.v. 500-1,000 mg/kg every 4 weeks, FIGS. 2A-2C. The method, then:
(§1) A human subject was treated with 2-hydroxypropyl-beta-cyclodextrin with single-ascending doses administered intravenously every 4 weeks according to Table 1 below.
In this Example, a human subject was treated with 2-hydroxypropyl-beta-cyclodextrin according to Example 1, and plasma levels of 24S-hydroxycholesterol and 27-hydroxycholesterol were measured. […] 27-hydroxycholesterol is an endogenous LXR ligand leading to a downstream anti-inflammatory gene signature which may, in some embodiments, address the detrimental inflammatory response via NLRP3 inflammasome effects of cholesterol crystal embolization. The elevated 27-hydroxycholesterol is also a cellular marker of macrophage activation and increased activity for cholesterol crystal phagocytosis and clearance.

The subject of assay [4] is ABCA1. To be noted: peripheral blood, human subject, i.v. 500-1,000 mg/kg every 4 weeks; FIGS. 3A-3D. The protocol:
as §1
(§2) In this Example, a human subject was treated with 2-hydroxypropyl-beta-cyclodextrin according to Example 1, and mRNA levels of the LXR transcription factor-regulated genes, ABCA1 and ABCG1, were measured. […] ABCA1 and ABCG1 are important cholesterol transporters and are responsible for cholesterol efflux from cells, loading of HDL particles for reverse cholesterol transport (RCT), and excretion via the hepatic pathway, to potentially reduce the cholesterol and cholesterol crystal emboli released into the vasculature and stabilize ruptured atherosclerotic plaque.

Assay [5] has as its system ABCG1. As to conditions: peripheral blood, human subject, i.v. 500-1,000 mg/kg every 4 weeks; FIGS. 3A-3D. The method, then:
as §1, §2

In the case of 2-hydroxypropyl-beta-cyclodextrin, the “capability of blood plasma to dissolve cholesterol crystals (CCDC)” value in assay [1] is reported as “increased capability of blood plasma to dissolve cholesterol crystals”. The “capacity of plasma to dissolve cholesterol crystals (CCDC)” value in assay [2] was “increased capacity to dissolve cholesterol crystals”. In assay [3], the “plasma levels of 24S-hydroxycholesterol” value is recorded as “increased” and the “plasma levels of 27-hydroxycholesterol” value is “increased”. The total cholesterol levels entry in assay [3] (plasma) is recorded as “remained stable”. In addition, the “mRNA levels of ABCA1” value in assay [4] was “increased”. The “mRNA levels of ABCG1” value in assay [5] is listed as “increased”.
